Reference: patent publication US12065435B2, “Compounds for the treatment of glycogen storage disorders” (HADASIT MEDICAL RESEARCH SERVICES AND DEVELOPMENT LTD., priority 2017, dated 2024)

Columns and labels:
APBD skin fibroblasts = experiment: Multi-parametric cell-phenotypic characterization of APBD skin fibroblasts; type: cell-based, human; conditions: APBD fibroblasts treated with compound
Excerpt: FIG. 10 presents a graph showing multi-parametric cell-phenotypic characterization of healthy control (HC) and APBD skin fibroblasts. Upper panel: the extent of deviation from healthy control of the cell features shown, ordered by the amount of deviation (-log (P value)). […] The different comparisons analyzed are shown at the bottom of the panel.
Next, the multi-parametric analysis of compound A, one of the compounds tested in the Gbe^Y329S/Y329S mouse model for APBD was completed. The different cell features in APBD fibroblasts of several patients were ordered according to the extent of their deviation from the same features in healthy fibroblasts.

[1] = system: APBD modeling mice (Gbe^Y329S/Y329S mouse model); experiment: Motor parameters in APBD modeling mice; type: in vivo; conditions: for ameliorating effect on motor parameters (summary): tested every two weeks
Method: This study was conducted in compounds A and B according to the schemes described in Tables 8 and 9, respectively.
As vehicle control, 0.1% DMSO was used. It is noteworthy that, in order to have a statistically significant number of animals, compound A was tested in male mice and compound B in female mice (no mixed cages were allowed).
APBD is an autosomal disease with no gender related symptoms and it was presumed that this experimental design is optimal. The mode of delivery of the compounds was intravenous (IV) injection for the first month, followed by subcutaneous injection due to lack of injection space and scaring in animal tails.
Tables 8 and 9 describe the study design for compounds A and B. both compounds were tested at the age of 4 months, two months prior to disease onset, in order to assess possible prophylactic effects, and at the age of 6 months, at disease onset, in order to assess corrective effects.
The effect of compounds A and B on various motor parameters was tested every two weeks. The results are shown in herein.
The point of reference is one time point prior to treatment initiation. Please note, since animals first treated with the compounds at 6 months of age were not injected at all before that age, they could not have been compared to animals pre-injected with vehicle. Therefore, the duration of the longitudinal studies for the cohorts first treated at the age of 6 months is shorter than that of the animals first treated at 4 months of age.

[2] = system: polyglucosan body (PB) in APBD patient-derived fibroblasts; experiment: High content (image-based) PAS screening assay for polyglucosan bodies; type: cell-based, human; conditions: 0, 1, 5, 10 and 50 μM
Method: All the steps of the assay were performed automatically using a Freedom Evo 150 liquid handling robot (Tecan). APBD patient-derived fibroblasts were seeded at a density of 800 cells/well in DMEM (Gibco) supplemented with 1 mM sodium pyruvate (Gibco), 1% antibiotics (Biological Industries, Israel) and 5% fetal bovine serum (Hyclone) into 384 well microclear plates (Greiner). The plates were transferred by the robotic arm (RoMa) into an automated incubator (Liconic), integrated with the robotic system, where they were incubated at 37° C. with 5% CO2. Following 24 h incubation, the medium was replaced by the robot using medium supplemented with 10 μM of each screened compound (0.1% DMSO final concentration, all prepared by the robot). The screened compounds were part of the Diverset CL collection purchased from ChemBridge (10,084 out of 50,000 molecules).
Next, these cells were cultured for another 24 h in the automated incubator, and, using the robot, washed them with PBS (Biological Industries, Israel), the cells were fixed with 4% paraformaldehyde (PFA), washed again with PBS, neutralized the previously added PFA by ammonium chloride (Sigma Aldrich), washed with PBS, permeabilized with 0.1% Triton X-100 (Sigma Aldrich), and washed again with PBS.
Following this, a robot was used to treat the fixed cells with 0.5 g/dl diastase (or amylase, Sigma Aldrich) for 5 minutes at 37° C. in the automated incubator, wash with PBS, stained with PAS (Merck), Hoechst 33342 (Sigma Aldrich) and Cell Mask Deep Red (Molecular Probes) and wash with PBS. Images of stained cells were then acquired by the IN Cell Analyzer 2000 (GE Healthcare) and analyzed using the IN Cell Investigator (GE Healthcare) applying an algorithm that quantified the PAS signal within each Cell Mask stained cell.
Images were segmented based on the Cell Mask signal which was linked with the segmentation of the nuclei, employing an empirically established sensitivity and kernel size for allowing the best segmentation. Once these nucleus-cytoplasm complex objects were selected, the software calculated the number of these objects (cell number) as well as the intensity of the PAS signal within each of them. All the assay parameters (including the acquisition exposure times, objective, and the analysis parameters) were kept constant throughout the whole screening campaign for allowing comparison of signals obtained from different batches of assay within the campaign.
The assay was performed as mentioned above, but with compound concentrations of 1, 5, 10, and 50 μM, instead of a constant concentration of 10 μM.
The discarded data was presumably associated with cells affected by toxic compounds. In the remaining data, the measured population mean PB intensity was normalized. Based on a series of images used for training, compounds were considered as positive only where following treatment the normalized PB mean intensity was at least under −1.2 z-score of the scale. Following this approach, 85 potential hits out of the 10,084 screened compounds were selected (0.84%).

APBD mice = conditions: mouse, in vivo
[3] = treated from 4 months of age (2 months before onset), two way ANOVA with repeated measures
[4] = treated from 4 months of age, Bonferroni's multiple comparisons test
[5] = treated from 6 months of age (at onset), two way ANOVA with repeated measures
[6] = treated from 6 months of age, Bonferroni's multiple comparisons test

In the case of `COCCN(Cc1sccc1C)C(=O)c1cc(C)[nH]c(=O)c1` [UDP #4, N-(2-methoxyethyl)-6-methyl-N-[(3-methyl-2-thienyl)methyl]-2-oxo-1,2-dihydropyridine-4-carboxamide], the “area of respiring (TMRE labeled) mitochondria” value (APBD skin fibroblasts) is reported as “decreased”, the nuclear intensity (APBD skin fibroblasts) is reported as “increased” and the “apathy, mobility and responsiveness to experimenter” value ([1]; 250 mg/kg, IV first month then subcutaneous) is reported as “less apathic, more mobile and more responsive to intervention by the experimenter”. For the same compound, the “ameliorating effect on motor parameters (summary)” value ([1]; 250 mg/kg, IV first month then subcutaneous, listed as Compound A) was “ameliorate extension reflex, grip strength and gait”, the “ameliorating effect on motor parameters (summary)” value ([1]; 250 mg/kg, IV first month then subcutaneous, listed as compound A) was “improves the uniformity of step alteration” and the “average duration in movement in an open field test vs vehicle” value (from here on “average duration in movement … vs vehicle”) [1, 3] was “not different from vehicle (p<0.1)”. For the same compound, the “average front paw grip strength vs vehicle” value [1, 3] was “not different from vehicle (p<0.1)”, the “average gait length vs vehicle” value [1, 3] was “not different from vehicle (p<0.1)” and the “average gait width vs vehicle” value [1, 3] was “not different from vehicle (p<0.1)”. The “average latency to fall off a metal wire vs vehicle” value [1, 3] was “not different from vehicle (p<0.1)”, the “average latency to fall off a rotating cylinder (rotarod) vs vehicle” value (“average latency … (rotarod) vs vehicle” for short) [1, 3] was “not different from vehicle (p<0.1)” and the “average regularity of step distance (Coefficient of Variance of all R-R and L-L step distances) vs vehicle” value [1, 3] was “significantly different from vehicle (p<0.01)”. For the same compound, the “average uniformity of step alternation (|0.5-(R-L/R-R)|) vs vehicle” value [1, 3] was “not different from vehicle (p<0.1)”, the “extension reflex vs vehicle” value [1, 3] was “different from vehicle with p<0.09” and the “average duration in movement … vs vehicle” value [1, 4] was “no significant difference”. For the same compound, the “average front paw grip strength vs vehicle” value [1, 4] was “a significant difference (p<0.05) between vehicle and treatment at 32 days after initiation of treatment”, the “average gait length vs vehicle” value [1, 4] was “no significant difference” and the “average gait width vs vehicle” value [1, 4] was “no significant difference”. For the same compound, the “average latency to fall off a metal wire vs vehicle” value [1, 4] was “no significant difference”, the “average latency … (rotarod) vs vehicle” value [1, 4] was “no significant difference” and the “average regularity of step distance vs vehicle” value [1, 4] was “a significant difference (p<0.05) between vehicle and treatment at 81 days after treatments initiation”. For the same compound, the “average uniformity of step alternation vs vehicle” value [1, 4] was “a significant difference (p<0.05) between vehicle and treatment 95 days after treatment initiation”, the “extension reflex vs vehicle” value [1, 4] was “no significant difference” and the “average duration in movement … vs vehicle” value [1, 5] was “not different from vehicle (p<0.1)”. For the same compound, the “average front paw grip strength vs vehicle” value [1, 5] was “different from vehicle with p<0.055”, the “average gait length vs vehicle” value [1, 5] was “not different from vehicle (p<0.1)” and the “average gait width vs vehicle” value [1, 5] was “not different from vehicle (p<0.1)”. The “average latency to fall off a metal wire vs vehicle” value [1, 5] was “not different from vehicle (p<0.1)”, the “average latency … (rotarod) vs vehicle” value [1, 5] was “not different from vehicle (p<0.1)” and the “average regularity of step distance vs vehicle” value [1, 5] was “not different from vehicle (p<0.1)”. For the same compound, the “average uniformity of step alternation (|0.5-(R-L/R-R)|) vs vehicle” value [1, 5] was “significantly different from vehicle (p<0.06)”, the “extension reflex vs vehicle” value [1, 5] was “not different from vehicle (p<0.1)” and the “average duration in movement … vs vehicle” value [1, 6] was “no significant difference”. For the same compound, the “average front paw grip strength vs vehicle” value [1, 6] was “no significant difference”, the “average gait length vs vehicle” value [1, 6] was “no significant difference” and the “average gait width vs vehicle” value [1, 6] was “no significant difference”. For the same compound, the “average latency to fall off a metal wire vs vehicle” value [1, 6] was “no significant difference”, the “average latency … (rotarod) vs vehicle” value [1, 6] was “no significant difference” and the “average regularity of step distance vs vehicle” value [1, 6] was “no significant difference”. For the same compound, the “average uniformity of step alternation vs vehicle” value [1, 6] was “a significant difference (p<0.05) between vehicle and treatment 95 days after treatment initiation”, the “extension reflex vs vehicle” value [1, 6] was “no significant difference” and the “dose response of diastase resistant cell associated mean PAS intensity normalized by z-score” value [2] was “lowered mean normalized PAS intensity in a non-dose responding manner”.

For `CO[C@H]1C[C@@H]2CC[C@@H](C)[C@@](O)(O2)C(=O)C(=O)N2CCCC[C@H]2C(=O)O[C@H]([C@H](C)C[C@@H]2CC[C@@H](O)[C@H](OC)C2)CC(=O)[C@H](C)/C=C(\C)[C@@H](O)[C@@H](OC)C(=O)[C@H](C)C[C@H](C)/C=C/C=C/C=C/1C` [rapamycin], the “toxic effects in APBD mice” value (APBD mice) was “toxic effects”.
